The values that follow come from patent US5605929A, “Methods and compositions for inhibiting 5α-reductase activity” (priority 1995, dated 1997).

Each structure is given as a SMILES string. Where two headings read alike, the source gives them in different places.

The target in series [1] is T1, 5α-Reductase of Rat Liver Microsomes (Rattus norvegicus, UniProt P24008).
T1 sequence (P24008 1-259): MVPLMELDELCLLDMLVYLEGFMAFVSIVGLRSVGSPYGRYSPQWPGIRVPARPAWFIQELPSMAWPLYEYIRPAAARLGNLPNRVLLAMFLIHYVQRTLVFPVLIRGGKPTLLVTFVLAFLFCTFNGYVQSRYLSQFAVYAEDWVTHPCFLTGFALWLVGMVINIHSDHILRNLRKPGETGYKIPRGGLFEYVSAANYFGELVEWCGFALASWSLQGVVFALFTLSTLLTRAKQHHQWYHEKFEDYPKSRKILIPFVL
As to the kind of experiment: [3H]4-MA binding assay, rat liver microsomes (tea catechins). In outline:
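Microsomes from adult female Sprague-Dawley rat liver or Rat-1A cells expressing human 5α-reductase, 25 μg protein per reaction. Incubation 30–60 min at 0 °C; microsome-bound [3H]4-MA collected on glass-fibre filters and counted. Duplicate or triplicate determinations, values based on reaction rate.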

For series [2], the target named is rat small intestinal maltase. The note with it: cited from earlier work.
For series [3], the target named is T2, rat small intestinal sucrase (Rattus norvegicus, UniProt P23739).
T2 construct: rat small intestinal sucrase and maltase; host or cells: rat small intestine
The note with it: cited from earlier work.

Series [4] can be described thus: NADPH oxidation in presence of microsomes.
The test system of the next series is NADH:menadione reductase. To be noted: 10 to 40 μM.
Series [5] concerns UDP-glucuronic acid:5α-DHT glucuronosyl transferase. The note with it: 10 to 40 μM.
The subject of a further series is PC-3. As to the kind of experiment: 5α-DHT formation from [3H]testosterone by PC-3 cells. The format is cell-based, human. To be noted: Homo sapiens, PC-3, read-out: 5α-DHT formed (% of control).
Series [6] deals with T1, 5α-Reductase of Rat Liver Microsomes. Briefly: biochemical. To be noted: for Ki: apparent Ki values for [^3 H]4-MA.
Series [7] deals with Human Prostatic Cancer Cells. Briefly: Cell morphology during 2 hour incubation. The format is cell-based.
The subject of another series is hamster flank organ. As to the kind of experiment: Flank organ, castrated immature male hamsters, topical treatment. The format is in vivo, Syrian golden hamster. The note with it: for change of pigmented macule vs T alone: Table 4, T + 1 mg fatty acid. In short, it runs like this: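 Castrated immature male hamsters (5 per group) received 5 μl once daily on the right flank organ of ethanol vehicle, androgen (T or 5α-DHT), fatty acid, or androgen plus fatty acid. The left organ was left untreated. Pigmented macule and sebaceous gland growth were assessed with caliper long and short axes, as mean ± SD.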

The next series addresses T3, microsomal 5α-reductase (Rattus norvegicus, UniProt P24008).
T3 construct: from the livers of adult Sprague-Dawley female rats; from tissue; host or cells: liver microsomes of adult female Sprague-Dawley rats
T3 sequence (P24008 1-259): T1 sequence (P24008 1-259)
Briefly: Enzymatic assay of microsomal 5α-reductase (testosterone to 5α-DHT). The format is biochemical.

The test system of series [8] is 5α-reductase in liver and prostate. The note with it: cited from earlier work.
The mark [9] stands for this setting: read-out: % Inhibition of [^3 H]4-MA binding.

The term IC50 denotes the concentration needed to halve the response being measured. In general, inhibition refers to the share of the control response that was lost under treatment. The Km is the substrate concentration at which the rate is half of its maximum.

T2 sequence (P23739 1014-1841 limits assumed): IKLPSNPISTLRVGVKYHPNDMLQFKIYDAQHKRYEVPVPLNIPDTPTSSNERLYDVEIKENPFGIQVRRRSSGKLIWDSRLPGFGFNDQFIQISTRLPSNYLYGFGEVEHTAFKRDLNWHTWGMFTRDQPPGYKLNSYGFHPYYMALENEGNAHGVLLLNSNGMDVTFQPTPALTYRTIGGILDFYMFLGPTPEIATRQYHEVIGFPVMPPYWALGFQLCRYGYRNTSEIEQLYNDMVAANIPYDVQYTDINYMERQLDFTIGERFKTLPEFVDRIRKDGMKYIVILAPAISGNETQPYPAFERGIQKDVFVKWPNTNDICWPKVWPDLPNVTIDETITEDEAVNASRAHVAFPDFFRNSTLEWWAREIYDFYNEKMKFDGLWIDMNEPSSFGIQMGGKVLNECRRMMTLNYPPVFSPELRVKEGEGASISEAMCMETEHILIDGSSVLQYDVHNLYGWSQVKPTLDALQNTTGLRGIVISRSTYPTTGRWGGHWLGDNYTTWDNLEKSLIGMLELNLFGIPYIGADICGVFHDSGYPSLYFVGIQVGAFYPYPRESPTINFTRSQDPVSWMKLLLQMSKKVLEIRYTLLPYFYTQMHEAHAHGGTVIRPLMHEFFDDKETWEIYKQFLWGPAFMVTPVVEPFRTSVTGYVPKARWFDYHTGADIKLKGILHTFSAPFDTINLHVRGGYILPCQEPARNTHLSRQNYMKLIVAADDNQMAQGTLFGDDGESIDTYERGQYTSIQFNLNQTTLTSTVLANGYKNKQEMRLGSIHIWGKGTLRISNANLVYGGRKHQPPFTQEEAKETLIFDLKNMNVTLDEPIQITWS
T2 sequence (P23739 2-1013 partner limits assumed): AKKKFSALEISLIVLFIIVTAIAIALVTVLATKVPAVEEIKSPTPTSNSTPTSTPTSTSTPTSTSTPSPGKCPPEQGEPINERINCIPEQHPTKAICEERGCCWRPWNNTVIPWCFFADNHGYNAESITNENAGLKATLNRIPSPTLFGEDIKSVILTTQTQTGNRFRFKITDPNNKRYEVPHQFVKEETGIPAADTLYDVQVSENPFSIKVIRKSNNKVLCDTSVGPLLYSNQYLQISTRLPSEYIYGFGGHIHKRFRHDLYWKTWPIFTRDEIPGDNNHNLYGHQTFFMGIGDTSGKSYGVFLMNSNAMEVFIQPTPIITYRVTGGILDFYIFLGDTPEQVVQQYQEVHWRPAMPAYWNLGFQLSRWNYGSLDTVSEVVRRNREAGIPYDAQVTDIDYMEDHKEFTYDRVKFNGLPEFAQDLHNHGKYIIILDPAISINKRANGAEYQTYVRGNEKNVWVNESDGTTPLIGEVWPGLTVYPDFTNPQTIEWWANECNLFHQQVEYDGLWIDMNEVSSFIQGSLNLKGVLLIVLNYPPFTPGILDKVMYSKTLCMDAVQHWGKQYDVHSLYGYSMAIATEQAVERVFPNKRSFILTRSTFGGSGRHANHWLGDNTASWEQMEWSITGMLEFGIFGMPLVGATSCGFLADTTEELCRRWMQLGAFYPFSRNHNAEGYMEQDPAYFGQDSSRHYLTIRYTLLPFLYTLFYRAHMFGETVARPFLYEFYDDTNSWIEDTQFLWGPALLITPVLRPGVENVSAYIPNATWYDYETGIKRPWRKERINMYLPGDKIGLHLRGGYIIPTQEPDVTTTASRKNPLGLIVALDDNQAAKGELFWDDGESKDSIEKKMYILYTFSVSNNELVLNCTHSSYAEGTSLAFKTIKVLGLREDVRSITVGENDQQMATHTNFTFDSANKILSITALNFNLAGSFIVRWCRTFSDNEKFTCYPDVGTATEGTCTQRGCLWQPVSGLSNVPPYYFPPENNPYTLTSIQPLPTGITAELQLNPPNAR
Protocol for microsomal 5α-reductase: Microsomes were prepared at 4° C. from a buffered 0.32M-sucrose homogenate of human liver and from the livers of adult Sprague-Dawley female rats by differential centrifugation as described previously (Liang et al., 1990), and were used in the assay of 5α-reductase activity. In some experiments, microsomes were solubilized with 0.1% polyoxyethylene ether W-1 as described previously (Liang et al., 1990), except for the substitution of polyoxyethylene ether W-1 for Lubrol-WX.

As for `O=C(O[C@@H]1Cc2c(O)cc(O)cc2O[C@@H]1c1cc(O)c(O)c(O)c1)c1cc(O)c(O)c(O)c1` [EGCG, (-)Epigallocatechin-3-gallate], in series [1], the IC50 worked out at 3 µM. Besides, in series [1] (setting [9]), the inhibition at 5 µM stood at 61%, the inhibition at 10 µM is 74%, the inhibition at 20 µM was 79% and the inhibition at 40 µM is 88%. The inhibition at 200 µM in series [1] (setting [9]) was found to be 93%. Besides, the IC50 in series [2] is 50 to 500 µM. Moreover, the IC50 in [3] was 50 to 500 µM. Besides, in series [4], the NADPH oxidation entry is “did not induce NADPH oxidation”.

As for `CCCCC/C=C\C/C=C\C/C=C\CCCCC(=O)O` [γ-Linolenic acid, γ-linolenic acid], the “effect on NADH:menadione reductase” value with NADH:menadione reductase is recorded as “did not affect”. For the same compound, in series [5], the “effect on UDP-glucuronic acid:5α-DHT glucuronosyl transferase” value is “did not affect”. Besides, in the series with PC-3 (1 μM), the activity at 1 µM stood at 98 ± 6%. Besides, the activity at 5 µM in the series on PC-3 (5 μM) was found to be 50 ± 3%. Moreover, the activity at 20 µM in the series on PC-3 (20 μM) was 2 ± 2%. The results for the Ki in [6] (γ-LA 5 μM) and in [6] (γ-LA 10 μM) were 0.02 µM and 0.04 µM, respectively. Further, the inhibition at 5 µM in [6] (setting [9]) was 30%. The inhibition at 10 µM in series [6] (setting [9]) was determined as 50 ± 2%. Besides, the inhibition at 40 µM in series [6] (setting [9]) was 83 ± 12%. Besides, the inhibition at 200 µM in series [6] (setting [9]) was 96 ± 2%. Besides, in series [7], the “visible change in cell morphology” value is listed as “did not produce any visible”. The “inhibition of 5α-DHT-induced growth of pigmented macule” value with hamster flank organ (0.2 to 1 mg) is recorded as “no statistically significant inhibition”. Moreover, the effective dosage in the series on hamster flank organ (T-stimulated pigmented macule, per flank organ/day) is ≥ 0.2 mg. Also, the “Pigmented Macule, Untreated (L)” value is on record as 4.2 ± 0.6 mm^2 in the series with hamster flank organ (Table 4, 1 mg fatty acid alone, 18 days) and 4.1 ± 0.3 mm^2 in the series with hamster flank organ (Table 4, T 0.5 μg + 1 mg fatty acid). Further, the “change of pigmented macule vs T alone” value with hamster flank organ (listed as LA) is reported as -53%; in the series on hamster flank organ (listed as γ-LA), 53%. For the same compound, the “Percent Inhibition” value in the series with hamster flank organ (Table 5, T 0.5 μg + fatty acid 1 mg, 21 days) is listed as 66%. For the same compound, the “Pigmented macule Right (+T)” value in the series on hamster flank organ (Table 5, T 0.5 μg + fatty acid 1 mg, 21 days, T alone 49.6 ± 8.3) is on record as 17.0 ± 6.4 mm^2. In addition, the “Pigmented macule Left” value with hamster flank organ (Table 5, fatty acid 1 mg without T, 21 days) is 4.4 ± 1.6 mm^2. The “Pigment Macule change” value was -31% in the series on hamster flank organ (Table 6, T + LA 0.2 mg); -24% in the series with hamster flank organ (Table 6, T + LA 0.4 mg); -45% in the series on hamster flank organ (Table 6, T + LA 0.6 mg); -32% with hamster flank organ (Table 6, T + LA 0.8 mg); -34% in the series with hamster flank organ (Table 6, T + LA 1.0 mg). Further, the “Sebaceous Gland change” value in the series with hamster flank organ (Table 6, T + LA 0.2 mg) is -30%; in the series on hamster flank organ (Table 6, T + LA 0.6 mg) it was -51%; in the series with hamster flank organ (Table 6, T + LA 0.8 mg) it was -25%; in the series with hamster flank organ (Table 6, T + LA 1.0 mg), -55%. For the same compound, in the series on hamster flank organ (daily dose of 1 to 2 mg γ-LA), the maximum inhibition was in the range of 50 to 66%. In the series on hamster flank organ (hamster, in vivo), the “effect on sebaceous gland growth stimulated by 5α-DHT” value is listed as “did not significantly affect”. The maximal inhibition in the series on hamster flank organ (reached by 1 mg, T-stimulated pigmented macule) came out at 50%. The “competition with testosterone or NADPH” value at microsomal 5α-reductase is recorded as “did not appear to compete with testosterone or NADPH”. Further, the Km on microsomal 5α-reductase (5 μM γ-LA, 2.0 without, read-out: apparent Km value for NADPH) worked out at 3.1 µM; at microsomal 5α-reductase (read-out: apparent Km value for testosterone, 5 μM γ-LA, 2.4 without), 4.5 µM. For the same compound, at microsomal 5α-reductase (5 μM γ-LA, 7.5 without), the Vmax was 2.8 pmol 5α-DHT formed/mg protein/15 min. Further, the “inhibition of 5α-reductase activity in liver and prostate” value in [8] was “inhibit 5α-reductase activity in both the liver and prostate”.
